# Columns and labels:
# Type in all cases: in vivo
# [1] = test system: velvetleaf (Abutilon theophrasti, ABUTH); test: Test A post-emergence, velvetleaf; conditions: after 13 d
# Method in brief: (§1)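 Post-emergence spray at 8 d after sowing; doses 15.625, 62.5 or 250 g/ha in acetone/water 50:50 + 0.5% Tween 20. Glasshouse 24/16 °C, 14 h light, 65% RH, watered twice daily. Visual damage rating 0–100 at 13 d.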
# [2] = test system: giant foxtail (Setaria faberi, SETFA); test: Test A post-emergence, giant foxtail; conditions: after 13 d
# Method in brief: as §1
# [3] = test system: velvetleaf (Abutilon theophrasti, ABUTH); test: Test A pre-emergence, velvetleaf; conditions: after 13 d
# Method in brief: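 Damage rated 0–100 (100 = total) 13 d after spraying. Application was one day post-sowing at 15.625, 62.5 or 250 g/ha, formulated in 50:50 acetone/water plus 0.5% Tween 20. Pots held in glasshouse at 24/16 °C day/night, 14 h light, 65% humidity, watered twice daily.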
# [4] = test system: redroot pigweed (Amaranthus retroflexus, AMARE); test: Test A post-emergence, redroot pigweed; conditions: after 13 d
# Method in brief: as §1
# [5] = test system: maize; test: Test D post-emergence, maize seed treated with a herbicide safener
# Procedure: (§2) A formulation containing 50 g/L of the test chemical was prepared by dissolving the active ingredient in a mixture of organic solvents and emulsifier, details of which are provided in the table. This formulation was then mixed with a small, variable amount of acetone to aid dissolution, before addition of a 0.2% v/v aqueous solution of an adjuvant, as the aqueous diluent, to form an aqueous spray solution which contains a predetermined concentration of the active ingredient.
# (§3) This aqueous spray solution was then sprayed onto plants including maize and wheat that had been seed treated with a herbicide safener, after one day's cultivation (for pre-emergence) or after about 12 days' cultivation (for post-emergence). The plants were grown from seeds sown in standard soil, placed in a glasshouse under controlled conditions (at 24/18° C. or 20/16° C., day/night; 16 h light; 65% humidity). After spray application the plants were then grown in a glasshouse under the same conditions and watered twice daily. After 15 d for post-emergence and 20 DAA for pre-emergence the test was evaluated (100=total damage to plant; 0=no damage to plant).
# [6] = test system: wheat; test: Test D post-emergence, wheat seed treated with a herbicide safener; conditions: "Cereals" Postemergent
# Procedure: as §2, §3
# [7] = Rates 130, evaluated after 15 d
# [8] = Rates 250, evaluated after 15 d
# [9] = Rates 500, evaluated after 15 d
Compound,damage to plant (100=total damage; 0=no damage) ABUTH ([1]; Post-Emergence at 15.625 g/ha),damage to plant (100=total damage; 0=no damage) ABUTH ([1]; Post-Emergence at 62.5 g/ha),damage to plant (100=total damage; 0=no damage) ABUTH ([1]; Post-Emergence at 250 g/ha),damage to plant (100=total damage; 0=no damage) SETFA ([2]; Post-Emergence at 15.625 g/ha),damage to plant (100=total damage; 0=no damage) SETFA ([2]; Post-Emergence at 62.5 g/ha),damage to plant (100=total damage; 0=no damage) SETFA ([2]; Post-Emergence at 250 g/ha),damage to plant (100=total damage; 0=no damage) ABUTH ([3]; Pre-Emergence at 15.625 g/ha),damage to plant (100=total damage; 0=no damage) ABUTH ([3]; Pre-Emergence at 62.5 g/ha),damage to plant (100=total damage; 0=no damage) ABUTH ([3]; Pre-Emergence at 250 g/ha),damage to plant (100=total damage; 0=no damage) AMARE ([4]; Post-Emergence at 15.625 g/ha),damage to plant (100=total damage; 0=no damage) AMARE ([4]; Post-Emergence at 62.5 g/ha),damage to plant (100=total damage; 0=no damage) AMARE ([4]; Post-Emergence at 250 g/ha),"damage to plant (100=total damage to plant; 0=no damage to plant), ZEAMX ([5]; rate 130, evaluated after 15 d)","damage to plant (100=total damage to plant; 0=no damage to plant), ZEAMX ([5]; rate 250, evaluated after 15 d)","damage to plant (100=total damage to plant; 0=no damage to plant), ZEAMX ([5]; rate 500, evaluated after 15 d)","TRZAW damage rating (100=total damage to plant; 0=no damage to plant) [6, 7]","TRZAW damage rating (100=total damage to plant; 0=no damage to plant) [6, 8]","TRZAW damage rating (100=total damage to plant; 0=no damage to plant) [6, 9]"
CN1CC(c2cc(Cl)n(C)n2)C(C(=O)Nc2ccc(F)c(F)c2F)C1=O (racemic) [Compound 31],0,0,0,40,80,80,0,0,0,0,10,20,,,,,,
CN1CC(c2cc(C(F)(F)F)n(C)n2)C(C(=O)Nc2ccc(F)cc2F)C1=O (racemic) [Compound 6],60,70,60,0,70,70,80,70,70,0,10,10,0,10,20,0,10,20
CCn1nc([C@H]2CN(C)C(=O)[C@@H]2C(=O)Nc2cccc(F)c2F)c2cc(F)ccc21 [Compound 8],0,0,0,70,70,80,0,0,0,0,0,0,0,0,0,,,
CN1CC(c2cc(C(F)(F)F)n(C)n2)C(C(=O)Nc2ccc(F)nc2F)C1=O (racemic) [Compound 22],0,0,0,50,70,80,0,0,0,0,0,0,0,0,20,0,0,10
CN1CC(c2cc(C(F)(F)F)n(C)n2)C(C(=O)Nc2cccc(F)n2)C1=O (racemic) [Compound 24],0,0,0,20,70,80,0,0,0,0,0,0,0,0,20,0,0,0
CN1CC(c2cc(C(F)(F)F)n(C)n2)C(C(=O)Nc2ccccc2F)C1=O (racemic) [Compound 9],0,0,0,40,90,90,0,0,0,0,0,0,,,,,,
COc1c(F)cccc1NC(=O)C1C(=O)N(C)CC1c1cc(C(F)(F)F)n(C)n1 (racemic) [Compound 18],0,0,0,50,70,70,0,0,0,0,0,0,0,0,10,0,10,40
CCn1nc([C@H]2CN(C)C(=O)[C@@H]2C(=O)Nc2cccc(F)c2F)c2c(F)cccc21 [Compound 7],0,0,0,60,70,80,0,0,0,0,0,0,0,0,10,,,
CN1CC(c2cnn(C)c2C(F)(F)F)C(C(=O)Nc2cccc(F)c2F)C1=O (racemic) [Compound 25],0,0,0,30,70,80,0,10,40,0,0,0,,,,,,
CCn1nc([C@H]2CN(C)C(=O)[C@@H]2C(=O)Nc2cccc(F)c2F)c2ccc(F)cc21 [Compound 4],0,0,20,90,90,90,0,0,0,0,20,20,,,,,,
